Usually CC50 stands for the concentration that lowers cell viability or growth by half. As a reminder, the IC50 is the point on the concentration scale where inhibition reaches its midpoint.

Structures are written as SMILES. Calls of active or inactive are those of the source. No cut-off for these calls is given here.

The target of series [1] is T1, Albumin (Bos taurus, UniProt P02769). Briefly: Binding affinity to bovine serum albumin assessed as hyperchromicity at 5 to 40 uM incubated for 10 mins by UV-Vis absorption spectroscopic method relative to control. It counts as ADME. The conditions noted are these: cattle, isolated protein.
T1 sequence (P02769 whole entry): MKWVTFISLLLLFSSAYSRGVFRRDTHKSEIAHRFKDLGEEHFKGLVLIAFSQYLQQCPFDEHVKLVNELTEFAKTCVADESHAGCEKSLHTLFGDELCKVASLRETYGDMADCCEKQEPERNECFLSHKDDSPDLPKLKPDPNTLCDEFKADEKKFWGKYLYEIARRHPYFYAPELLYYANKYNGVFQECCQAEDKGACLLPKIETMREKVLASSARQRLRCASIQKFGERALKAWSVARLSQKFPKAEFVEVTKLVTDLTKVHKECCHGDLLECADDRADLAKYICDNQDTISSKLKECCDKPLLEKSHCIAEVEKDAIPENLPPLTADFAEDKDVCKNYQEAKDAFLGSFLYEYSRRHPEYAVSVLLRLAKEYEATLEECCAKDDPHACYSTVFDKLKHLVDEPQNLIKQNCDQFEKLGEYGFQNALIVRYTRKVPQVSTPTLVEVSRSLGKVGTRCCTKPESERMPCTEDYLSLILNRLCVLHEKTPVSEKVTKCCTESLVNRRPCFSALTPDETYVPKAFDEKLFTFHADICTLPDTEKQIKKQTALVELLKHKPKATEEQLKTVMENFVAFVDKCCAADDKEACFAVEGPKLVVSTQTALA
Series [2] can be described thus: Cytotoxicity against mouse RAW264.7 cells assessed as reduction in cell viability incubated for 48 hrs by MTT assay. Type of series: cell-based. In general terms: Tetrazolium dyes change colour on reduction, which living cells bring about.
Series [3] concerns the target T1, Albumin. Briefly: Binding affinity to bovine serum albumin assessed as hypsochromic shift at 5 to 40 uM by fluorescence emission spectrum analysis method. Type of series: ADME. The following applies: cattle, isolated protein.
The target in series [4] is T1, Albumin. As to the kind of experiment: Binding affinity to bovine serum albumin assessed as Stem-Volmer quenching constant incubated for 10 mins by fluorescence emission spectrum analysis. The following applies: cattle, isolated protein. Type of series: ADME.
Another series deals with T47D. As to the kind of experiment: Cytotoxicity against human T47D cells assessed as reduction in cell viability incubated for 48 hrs by MTT assay. Type of series: functional, cell-based.
The nature of series [5]: Selectivity index, ratio of CC50 for mouse RAW264.7 cells to ratio of IC50 for human T47D cells. It counts as toxicity. The conditions noted are these: RAW264.7 cells and T47D cells, read-out: Ratio CC50/IC50.
Series [6] concerns the target T1, Albumin. Briefly: Binding affinity to bovine serum albumin assessed as hypochromicity at 5 to 40 uM by fluorescence emission spectrum analysis method relative to control. It counts as ADME. The conditions noted are these: cattle, isolated protein.
Series [7] concerns the target DNA topoisomerase 2-alpha (Homo sapiens) (UniProt P11388). Briefly: Inhibition of recombinant human topoisomerase 2alpha using supercoiled pUC19 plasmid DNA as substrate at 10 uM incubated for 45 mins by ethidium bromide dye based agarose gel electrophoresis method.
A further series deals with Salmon testes DNA. Briefly: Binding affinity to salmon sperm […] DNA assessed as DNA intercalation by measuring increase in viscosity at 12 to 60 uM by viscometric method. Type of series: nucleic-acid assay. The following applies: Salmonidae.
Series [8] relates to Calf thymus DNA. As to the kind of experiment: Binding affinity to calf thymus DNA assessed as binding constant incubated for 10 mins by UV-Vis absorption spectroscopic method. It counts as nucleic-acid assay. The conditions noted are these: Bos taurus.
Series [9] relates to Calf thymus DNA. As to the kind of experiment: Binding affinity to calf thymus DNA assessed as hypochromicity at 30 uM incubated for 10 mins by UV-Vis absorption spectroscopic method relative to control. Type of series: nucleic-acid assay. The conditions noted are these: Bos taurus.
The target in series [10] is T1, Albumin. As to the kind of experiment: Binding affinity to bovine serum albumin assessed as binding constant incubated for 10 mins by UV-Vis absorption spectroscopic method. The following applies: cattle, isolated protein. Type of series: ADME.
In another series the test system is MCF7. Briefly: Cytotoxicity against human MCF7 cells assessed as reduction in cell viability incubated for 48 hrs by MTT assay. The conditions noted are these: MCF7, 48 h. Type of series: functional, cell-based.
Series [11] can be described thus: Selectivity index, ratio of CC50 for mouse RAW264.7 cells to ratio of IC50 for human MCF7 cells. Type of series: toxicity. The following applies: RAW264.7 cells and MCF7 cells, read-out: Ratio CC50/IC50.
In series [12] the test system is Calf thymus DNA. Briefly: Binding affinity to calf thymus DNA assessed as DNA spectral changes at 30 uM incubated for 10 mins by circular dichroism method. Type of series: nucleic-acid assay. The following applies: Bos taurus.
The subject of series [13] is Calf thymus DNA. As to the kind of experiment: Binding affinity to calf thymus DNA assessed as fold change in hyperchromicity at 10 uM by fluorescence emission spectrum analysis relative to control. It counts as nucleic-acid assay. The conditions noted are these: Bos taurus.
Series [14] concerns Calf thymus DNA. Briefly: Binding affinity to calf thymus DNA assessed as DNA spectral changes by measuring decrease in positive band at 274 nm at 30 uM incubated for 10 mins by circular dichroism method. It counts as nucleic-acid assay. The following applies: Bos taurus. A general note: Circular dichroism is widely used to follow secondary structure.
In series [15] the target is T1, Albumin. Briefly: Binding affinity to bovine serum albumin assessed as hypsochromic shift at 5 to 40 uM incubated for 10 mins by UV-Vis absorption spectroscopic method relative to control. Type of series: ADME. The conditions noted are these: cattle, isolated protein.
For series [16], the system named is Calf thymus DNA. As to the kind of experiment: Binding affinity to calf thymus DNA assessed as bathochromic shift at 30 uM incubated for 10 mins by UV-Vis absorption spectroscopic method. It counts as nucleic-acid assay. The conditions noted are these: Bos taurus.
In series [17] the test system is Calf thymus DNA. Briefly: Binding affinity to calf thymus DNA assessed as hyperchromicity at 30 uM incubated for 10 mins by UV-Vis absorption spectroscopic method relative to control. Type of series: nucleic-acid assay. The following applies: Bos taurus.
The subject of series [18] is Calf thymus DNA. As to the kind of experiment: Binding affinity to calf thymus DNA assessed as DNA spectral changes by measuring increase in negative band at 245 nm at 30 uM incubated for 10 mins by circular dichroism method. The conditions noted are these: Bos taurus. Type of series: nucleic-acid assay.
The subject of series [19] is Calf thymus DNA. Briefly: Binding affinity to calf thymus DNA assessed as fold change in hypochromicity at 10 uM by fluorescence emission spectrum analysis relative to control. Type of series: nucleic-acid assay. The following applies: Bos taurus.
For series [20], the system named is Calf thymus DNA. Briefly: Binding affinity to calf thymus DNA assessed as hypsochromic shift at 10 uM by fluorescence emission spectrum analysis. The conditions noted are these: Bos taurus. It counts as nucleic-acid assay.

Chain of DNA topoisomerase 2-alpha (Homo sapiens) (P11388 whole entry): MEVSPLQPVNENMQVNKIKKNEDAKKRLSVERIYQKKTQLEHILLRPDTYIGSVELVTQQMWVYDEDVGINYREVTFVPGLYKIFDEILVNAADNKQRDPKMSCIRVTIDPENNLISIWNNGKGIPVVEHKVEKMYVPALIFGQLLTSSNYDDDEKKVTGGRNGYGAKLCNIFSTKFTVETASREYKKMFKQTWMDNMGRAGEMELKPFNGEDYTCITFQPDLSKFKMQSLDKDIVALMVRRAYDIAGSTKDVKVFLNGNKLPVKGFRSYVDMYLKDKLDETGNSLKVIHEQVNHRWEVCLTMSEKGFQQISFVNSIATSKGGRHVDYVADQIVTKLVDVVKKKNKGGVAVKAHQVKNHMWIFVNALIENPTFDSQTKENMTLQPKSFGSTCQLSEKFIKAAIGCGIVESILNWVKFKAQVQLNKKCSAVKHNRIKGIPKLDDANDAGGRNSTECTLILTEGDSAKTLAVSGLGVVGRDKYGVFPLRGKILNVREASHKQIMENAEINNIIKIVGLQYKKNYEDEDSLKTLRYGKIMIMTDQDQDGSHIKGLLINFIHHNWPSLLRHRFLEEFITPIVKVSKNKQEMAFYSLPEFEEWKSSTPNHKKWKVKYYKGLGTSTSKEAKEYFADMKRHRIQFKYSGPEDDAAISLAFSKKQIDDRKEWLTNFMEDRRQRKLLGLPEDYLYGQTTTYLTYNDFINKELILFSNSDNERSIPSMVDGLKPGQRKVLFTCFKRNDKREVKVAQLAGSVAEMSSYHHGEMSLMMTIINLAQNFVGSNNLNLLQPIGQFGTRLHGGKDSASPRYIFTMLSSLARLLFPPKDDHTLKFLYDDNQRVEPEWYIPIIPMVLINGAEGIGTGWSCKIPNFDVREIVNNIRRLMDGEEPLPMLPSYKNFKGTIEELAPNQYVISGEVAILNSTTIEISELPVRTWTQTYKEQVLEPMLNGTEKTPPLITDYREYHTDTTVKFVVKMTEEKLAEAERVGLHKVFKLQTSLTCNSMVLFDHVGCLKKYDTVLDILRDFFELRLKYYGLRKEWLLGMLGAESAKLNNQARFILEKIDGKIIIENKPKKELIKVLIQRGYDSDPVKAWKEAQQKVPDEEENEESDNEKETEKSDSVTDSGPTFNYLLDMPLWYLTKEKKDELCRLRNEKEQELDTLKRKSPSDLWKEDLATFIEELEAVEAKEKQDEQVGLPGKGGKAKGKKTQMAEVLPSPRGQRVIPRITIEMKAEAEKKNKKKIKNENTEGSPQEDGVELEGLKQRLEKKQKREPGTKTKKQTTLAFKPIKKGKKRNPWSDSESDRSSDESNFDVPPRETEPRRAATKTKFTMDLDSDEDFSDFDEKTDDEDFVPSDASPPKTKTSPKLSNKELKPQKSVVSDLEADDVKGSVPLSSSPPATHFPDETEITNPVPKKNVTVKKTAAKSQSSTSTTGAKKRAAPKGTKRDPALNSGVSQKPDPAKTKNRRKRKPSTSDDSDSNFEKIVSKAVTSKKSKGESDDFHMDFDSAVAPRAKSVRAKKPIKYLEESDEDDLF

Regarding `S=C(N/N=C\c1ccnc2ccccc12)Nc1cccnc1`, the Activity was 52.95% at Albumin [1], “Active” at Albumin [3], 493.41% at Albumin [6] and 20.3% in the series with Calf thymus DNA [9]. Moreover, in [2], the CC50 at 48 h came out at 91600 nM. The KSV at Albumin [4] turned out to be 3.99 ×10⁴ /M. Further, the IC50 with T47D is 1100 nM; in the series with MCF7, 970 nM. For the same compound, the selectivity ratio in series [5] was 83.3; in series [11], 94.4. In addition, the inhibition result in series [7] is “inactive”. Besides, the outcome in the series with Salmon testes DNA and with Calf thymus DNA [12] was Active. In addition, the Kb came to 1.96 ×10⁵ /M with Calf thymus DNA [8] and 8.03 ×10⁴ /M on Albumin [10]. Besides, the fold change (FC) in the series on Calf thymus DNA [13] stood at 0.89.

On to `CCc1ccc(NC(=S)N/N=C\c2ccnc3ccccc23)cc1`, for which the result in the series with Calf thymus DNA [14], with Calf thymus DNA [16], with Salmon testes DNA, in the series on Calf thymus DNA [18] and in the series with Calf thymus DNA [20] was Active. Besides, the Activity at Albumin [1] is 69.01%; on Albumin [15], “Active”; at Albumin [3] it was “Active”; at Albumin [6], 601.57%; in the series on Calf thymus DNA [17], 51.4%. Also, in series [2], the CC50 at 48 h was found to be 35700 nM. The KSV at Albumin [4] was found to be 16.05 ×10⁴ /M. Also, the results for the half-inhibitory concentration (IC50) with T47D and in the series on MCF7 were 1280 nM and 820 nM, respectively. Further, the selectivity ratio was 27.9 in [5] and 43.6 in [11]. Also, the inhibition result in series [7] is “inactive”. The figures for the Kb in the series with Calf thymus DNA [8] and on Albumin [10] were 1.62 ×10⁶ /M and 1.43 ×10⁵ /M, respectively. For the same compound, in the series on Calf thymus DNA [19], the fold change (FC) came to 4.65.
